Measurements from patent US20240368125A1, “NOVEL PYRAZINYL-TRIAZOLE COMPOUNDS AS PESTICIDES” (Bayer Aktiengesellschaft, priority 2021, published 2024).

How the values were obtained:
Type in all cases: in vivo
[1] = system: Rhipicephalus (Boophilus) microplus larvae (strain Parkhurst, resistant against synthetic pyrethroids); experiment: Rhipicephalus (Boophilus) microplus in-vitro contact test, larval cattle tick; conditions: Rhipicephalus microplus; 1 μg/cm^2 (=100 g/ha), after 48 hours; read-out: efficacy (larvae dead or moribund)
Protocol: Rhipicephalus (Boophilus) Microplus—In-Vitro Contact Tests Larval Cattle Tick (Strain Parkhurst, Resistant Against Synthetic Pyrethroids
(§1) 9 mg compound is solved in 1 mL acetone and diluted with acetone to the desired concentration. 250 μL of the test solution is filled in 25 mL glass test tubes and homogeneously distributed on the inner walls by rotation and tilting on a shaking device (2 h at 30 rpm). With a compound concentration of 900 ppm, an inner surface of 44.7 cm^2 and a homogeneous distribution, a dose of 5 μg/cm^2 is achieved.
After the solvent has evaporated, each test tube is filled with 20-50 cattle tick larvae (Rhipicephalus microplus), closed with a perforated lid and incubated in a horizontal position at 85% relative humidity and 27° C. in an incubator. After 48 hours efficacy is determined. The larvae are patted on the ground of the tubes and negative geotactic behavior is recorded.

[2] = system: adult engorged female ticks (Rhipicephalus microplus); experiment: Rhipicephalus (Boophilus) microplus injection test; conditions: 4 μg/tick, after 7 days
Protocol: Rhipicephalus (Boophilus) Microplus—Injection Test
(§2) Solvent: Dimethyl Sulfoxide
To produce a suitable preparation of active compound, 10 mg of active compound are dissolved in 0.5 mL solvent, and the concentrate is diluted with solvent to the desired concentration.
Five adult engorged female ticks (Rhipicephalus microplus) are injected with 1 μL compound solution into the abdomen. The ticks are transferred into replica plates and incubated in a climate chamber.
After 7 days egg deposition of fertile eggs is monitored. Eggs where fertility is not visible are stored in a climate chamber till hatching after about 42 days. An efficacy of 100% means all eggs are infertile; 0% means all eggs are fertile.

[3] = system: adult cat fleas (Ctenocephalides felis); experiment: Ctenocephalides felis in-vitro contact test, adult cat flea; conditions: Ctenocephalides felis; 1 μg/cm^2 (=100 g/ha), after 48 hours; read-out: efficacy (fleas dead or moribund)
Protocol: Ctenocephalides Felis—In-Vitro Contact Tests Adult Cat Flea
as §1
(§3) After the solvent has evaporated, each test tube is filled with 5-10 adult cat fleas (Ctenocephalides felis), closed with a perforated lid and incubated in a lying position at room temperature and relative humidity. After 48 hours efficacy is determined. The fleas are patted on the ground of the tubes and are incubated on a heating plate at 45-50° C. for at most 5 minutes. Immotile or uncoordinated moving fleas, which are not able to escape the heat by climbing upwards, are marked as dead or moribund.
An efficacy of 100% means all fleas are dead or moribund; 0% means no fleas are dead or moribund.

[4] = system: adult unfed cat fleas (Ctenocephalides felis); experiment: Ctenocephalides felis oral test; conditions: 48 h, 100 ppm in citrated cattle blood, after 2 days
Protocol: Ctenocephalides felis—Oral Test
as §2
To produce a suitable preparation of active compound, 10 mg of active compound are dissolved in 0.5 mL solvent, and the concentrate is diluted with citrated cattle blood to the desired concentration.
Approximately 20 adult unfed cat fleas (Ctenocephalides felis) are placed in a flea chamber whose top and bottom is covered with gauze. A chamber whose bottom is sealed with parafilm, is filled with the blood-compound solution and placed on top of the flea chamber, so that the fleas can suck the blood. The blood chamber is heated to 37° C. whereas the flea chamber is kept at room temperature.
After 2 days mortality in % is determined. 100% means all the fleas have been killed; 0% means none of the fleas have been killed.

[5] = system: adult brown dog ticks (Rhipicephalus sanguineus); experiment: Rhipicephalus sanguineus in-vitro contact test, adult brown dog ticks; conditions: Rhipicephalus sanguineus; 1 μg/cm^2 (=100 g/ha), after 48 hours; read-out: efficacy (ticks dead or moribund)
Protocol: Rhipicephalus sanguineus—In-Vitro Contact Tests with Adult Brown Dog Ticks
as §1
as §3, with “brown dog ticks (Rhipicephalus sanguineus),” for “cat fleas (Ctenocephalides felis),”, “ticks” for “fleas”, “ticks,” for “fleas,”
An efficacy of 100% means all ticks are dead or moribund; 0% means no ticks are dead or moribund.

[6] = system: green peach aphid (Myzus persicae); experiment: Myzus persicae spray test (MYZUPE); conditions: in Brassica rapa, foliar, 120 h
Protocol: Myzus persicae—Spray Test
(§4) Solvent: 78.0 parts by weight acetone • 1.5 parts by weight dimethylformamide
(§5) Emulsifier: alkylarylpolyglycol ether
(§6) To produce a suitable preparation of active compound, 1 part by weight of active compound is mixed with the stated amount of solvents and is diluted with water, containing an emulsifier concentration of 1000 ppm, to the desired concentration. Further test concentrations are prepared by dilution with emulsifier containing water.
Chinese cabbage (Brassica pekinensis) leaf disks infected with all instars of the green peach aphid (Myzus persicae), are sprayed with a preparation of the active ingredient of the desired concentration.
After 5 days mortality in % is determined. 100% means all aphids have been killed and 0% means none of the aphids have been killed.
Myzus persicae—Spray Test (MYZUPE
After the specified period of time, mortality in % is determined. 100% means all aphids have been killed and 0% means none of the aphids have been killed.

[7] = system: larvae of the southern green stink bug (Nezara viridula); experiment: Nezara viridula spray test; conditions: Nezara viridula, in Hordeum vulgare, 96 h
Protocol: Nezara viridula—Spray Test
(§7) Solvent: 78.0 parts by weight of acetone • • 1.5 parts by weight of dimethylformamide
as §5
as §6, with “solvent,” for “solvents”, “and the concentrate” for “and”
Barley plants (Hordeum vulgare) are sprayed with a test solution containing the desired concentration of the active ingredient and are infested with larvae of the southern green stink bug (Nezara viridula).
After 4 days mortality in % is determined. 100% means all the stink bugs have been killed; 0% means none of the stink bugs have been killed.

[8] = system: brown planthopper (Nilaparvata lugens); experiment: Nilaparvata lugens spray test; conditions: Nilaparvata lugens, in Oryza sativa, 96 h
Protocol: Nilaparvata lugens—Spray Test
as §7, §5, §6
Rice plants (Oryza sativa) are sprayed with a preparation of the active ingredient of the desired concentration and the plants are infested with the brown planthopper (Nilaparvata lugens).
After 4 days mortality in % is determined. 100% means all planthoppers have been killed and 0% means none of the planthoppers have been killed.

[9] = system: fall armyworm larvae (Spodoptera frugiperda); experiment: Spodoptera frugiperda spray test (SPODFR); conditions: in Zea mays, 168 h
Protocol: Spodoptera frugiperda—Spray Test
as §4, §5, §6
Maize (Zea mays) leaf sections are sprayed with a preparation of the active ingredient of the desired concentration. Once dry, the leaf sections are infested with fall armyworm larvae (Spodoptera frugiperda).
After 7 days mortality in % is determined. 100% means all caterpillars have been killed and 0% means none of the caterpillars have been killed.
Spodoptera frugiperda—Spray Test (SPODFR
After the specified period of time, mortality in % is determined. 100% means all caterpillars have been killed and 0% means none of the caterpillars have been killed.

[10] = system: larvae of the banded cucumber beetle (Diabrotica balteata); experiment: Diabrotica balteata spray test; conditions: Diabrotica balteata, 168 h; 100 g/ha (=32 μg/well), wheat seeds, after 7 days; read-out: efficacy (seedlings grown)
Protocol: Diabrotica balteata—Spray Test
as §7, §5
as §6, with “solvent,” for “solvents”, “and the concentrate” for “and”
Soaked wheat seeds (Triticum aestivum) are placed in a multiple well plate filled with agar and some water and are incubated for 1 day to germinate (5 seeds per well). The germinated wheat seeds are sprayed with a test solution containing the desired concentration of the active ingredient. Afterwards each unit is infected with 10-20 larvae of the banded cucumber beetle (Diabrotica balteata).
After 7 days efficacy in % is determined. 100% means all the seedlings have grown up like in the untreated, uninfected control; 0% means none of the seedlings have grown.

[11] = system: adult mosquitoes Aedes aegypti strain MONHEIM; experiment: Aedes aegypti test (AEDSAE surface treatment & contact assay); conditions: surface concentration 4 mg/m^2, 30 min exposure, 24 hours after contact, read-out: efficacy (mortality)
Protocol: Aedes aegypti Test (AEDSAE Surface Treatment & Contact Assay
(§8) Solvent: Aceton+2000 ppm rapeseed oil methyl ester (RME)
In order to produce a sufficient, active ingredient containing solution it is necessary to solve the test compound in the solvent-mix (acetone at 2 mg/ml/RME 2000 ppm). This solution is pipetted onto a glazed tile and after evaporation of the acetone, adult mosquitoes of the species Aedes aegypti strain MONHEIM are placed onto the dried surface. The exposure time is 30 minutes. Mortality in percent (%) is determined 24 hours after contact of the insects to the treated surface. 100% mortality means that all tested insects are dead, whereas 0% means that no insect died.

[12] = system: adult Blattella germanica strain PAULINIA; experiment: Blattella germanica test (BLTTGE surface treatment & contact assay); conditions: surface concentration 20 mg/m^2, 30 min exposure, 24 hours after contact, read-out: efficacy (mortality)
Protocol: Blattella germanica Test (BLTTGE Surface Treatment & Contact Assay
as §8
In order to produce a sufficient, active ingredient containing solution it is necessary to solve the test compound in the solvent-mix (acetone at 2 mg/ml/RME 2000 ppm). This solution is pipetted onto a glazed tile and after evaporation of the acetone, adult animals of the species Blattella germanica strain PAULINIA are placed onto the dried surface. The exposure time is 30 minutes.
Mortality in percent (%) is determined 24 hours after contact of the insects to the treated surface. 100% mortality means that all tested insects are dead, whereas 0% means that no insect died.

Row | Compound | pest or weed control at 1 µg/cm2 [1] [%] | efficacy (infertile eggs) [2] [%] | pest or weed control at 1 µg/cm2 [3] [%] | mortality at 100 ppm [4] [%] | pest or weed control at 1 µg/cm2, 100 g/ha [5] [%] | mortality at 100 g/ha [6] [%] | mortality at 500 g/ha [7] [%] | mortality at 500 g/ha [8] [%] | mortality at 100 g/ha [9] [%] | pest or weed control at 32 µg/disc, 100 g/ha [10] [%] | mortality at 4 mg/m2 [11] [%] | mortality at 20 mg/m2 [12] [%]
1 | C[C@H](NC(=O)c1cc(C(F)(F)F)cc(C(F)(F)F)c1)c1ncnn1-c1cnc(C(N)=O)cn1 [Example I-010] | 100 | 100 | 100 | 100 | 100 | 90 | 100 | 100 | 100 | – | – | –
2 | Cc1nc([C@H](C)NC(=O)c2cc(C(F)(F)F)cc(C(F)(F)F)c2)n(-c2cnc(C(=O)N(C)C)cn2)n1 [Example I-015] | 100 | – | 100 | – | 100 | 90 | 100 | 100 | 100 | – | – | –
3 | CCN(C)C(=O)c1cnc(-n2nc(C)nc2[C@H](C)NC(=O)c2cc(C(F)(F)F)cc(C(F)(F)F)c2)cn1 [Example I-016] | 100 | – | 100 | – | 100 | 100 | 100 | 100 | 100 | – | – | –
4 | CNC(=O)c1cnc(-n2ncnc2[C@H](C)NC(=O)c2cc(OC(F)(F)F)cc(S(C)(=O)=O)c2)cn1 [Example I-019] | 100 | – | 100 | – | 100 | 90 | 100 | 100 | 100 | 100 | 80 to 100 | 80 to 100
5 | Cc1nc([C@H](C)NC(=O)c2cc(OC(F)(F)F)cc(C3CC3)c2)n(-c2cnc(C(=O)N(C)C)cn2)n1 [Example I-047, 5-(5-{(1S)-1-[3-Cyclopropyl-5-(trifluoromethoxy)benzamido]ethyl}-3-methyl-1H-1,2,4-triazol-1-yl)-N,N-dimethylpyrazine-2-carboxamide] | 100 | – | 100 | – | 100 | 90 | 100 | 100 | 100 | 80 | – | –
